Test results as given in patent US20050009730A1, “Treatment of cns disorders using cns target modulators” (priority 2001, published 2005).
Like-named read-outs stand apart in the source and are kept apart here.

Experiments:
Male Wistar rats = test: Sleep-wakefulness, locomotor activity and body temperature monitoring (SCORE-2000), treatment at CT-18
Histamine, H1 = Histamine, H1 (Homo sapiens, UniProt P35367); test: H1 binding assay by displacement of known standards
Description: (§1) The following binding assays were performed on the Series 11 compounds described above by displacement of known standards from the H1, M1, M2, and M3 receptors, wherein H1 is a histamine receptor, and M1, M2, and M3 are muscarinic receptors.
The binding studies against the histamine receptor, H1, indicate binding affinity, and therefore the results of the binding assays are an indication of the activity of the compound. […]
The following binding assays were performed on additional compounds described above by displacement of known standards from the H1, M1, M2, and M3 receptors, wherein H1 is a histamine receptor, and M1, M2, and M3 are muscarinic receptors.
The binding assays for H1 was the same as described in Example 10 and the M1, M2, and M3 binding assays are the same as those described in Example 10 for human recombinant expressed cells.

muscarinic receptors = test: Muscarinic receptor binding, M1, M2 and M3 taken together in the conclusions
Description: as §1
In addition, the binding studies against the muscarinic receptors indicate the extent to which the compounds bind the muscarinic receptors, responsible for anti-cholinergic activity of the compound. Binding to muscarinic receptors results in several undesired side effects of many known antihistamines, e.g., dry-mouth. A decrease in the binding of the compounds to the M1-M3 receptors, relative the binding of the compound to the H1 receptor, is an indication of the greater specificity of the compound for the histamine receptor over the muscarinic receptor.

[1] = read-out: Receptor Binding Data (Ki nM) H1
[2] = 10 mg/kg or 30 mg/kg, intraperitoneal
[3] = 30 mg/kg and 10 mg/kg, intraperitoneal, CT-18

Chain of Histamine, H1 (P35367 whole entry): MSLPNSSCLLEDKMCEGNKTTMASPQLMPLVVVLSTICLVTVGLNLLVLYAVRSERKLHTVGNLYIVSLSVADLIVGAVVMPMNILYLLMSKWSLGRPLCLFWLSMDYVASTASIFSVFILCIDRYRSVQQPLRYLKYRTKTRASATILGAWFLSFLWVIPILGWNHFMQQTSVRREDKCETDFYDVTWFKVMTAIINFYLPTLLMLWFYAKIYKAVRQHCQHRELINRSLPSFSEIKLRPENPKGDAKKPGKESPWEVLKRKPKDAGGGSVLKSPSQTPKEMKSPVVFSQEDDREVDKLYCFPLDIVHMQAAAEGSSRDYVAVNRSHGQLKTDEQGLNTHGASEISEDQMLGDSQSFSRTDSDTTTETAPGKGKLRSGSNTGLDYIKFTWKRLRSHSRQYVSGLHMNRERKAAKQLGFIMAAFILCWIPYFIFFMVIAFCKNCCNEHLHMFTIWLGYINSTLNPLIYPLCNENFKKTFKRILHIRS

Row | Compound | Ki (Histamine, H1; [1]) | Average Bout-Length (Male Wistar rats; 30 mg/kg PO, at CT-18) | Duration (Male Wistar rats; 30 mg/kg PO, at CT-18) | Maximum Bout Length (Male Wistar rats; 30 mg/kg PO, at CT-18) | NREM Accum. (Male Wistar rats; 30 mg/kg PO, at CT-18) | NREM Peak (Male Wistar rats; 30 mg/kg PO, at CT-18) | Onset (Male Wistar rats; 30 mg/kg PO, at CT-18) | IC50 (Histamine, H1) | Ki (Histamine, H1; read-out: H1 Ki) | further results
1 | Cc1ccc(-c2nc3ccc(C)cn3c2CC(=O)N(C)C)cc1 [Ambien, Zolpidem, reference compound] | – | – | – | – | – | – | – | – | – | Average Bout-Length (Male Wistar rats; 30 mg/kg IP, at CT-18): 5.8 min; Duration (Male Wistar rats; 30 mg/kg IP, at CT-18): 3 to 4 h; Maximum Bout Length (Male Wistar rats; 30 mg/kg IP, at CT-18): 13.1 min; Motor Inhibition (Male Wistar rats; 30 mg/kg IP, at CT-18): YES; NREM Accum. (Male Wistar rats; 30 mg/kg IP, at CT-18): 58.7 min; NREM Peak (Male Wistar rats; 30 mg/kg IP, at CT-18): 58.2 %/hr; Onset (Male Wistar rats; 30 mg/kg IP, at CT-18): 5 min; REM Inhibition (Male Wistar rats; 30 mg/kg IP, at CT-18): YES; Rebound Insomnia (Male Wistar rats; 30 mg/kg IP, at CT-18): YES
2 | Cl.O=C(O)CCN1CCC(OC(c2ccccc2)c2ccccc2)CC1 [Series 6a, 3-[4-(diphenylmethoxy)piperidin-1-yl]propanoic acid hydrochloride] | 56.1 nM | 7.0 min | 5 h | 12.8 min | 26.5 min | 56.4 %/hr | 65 min | – | – | –
3 | O=C(O)CN1CCC(=C2c3ccccc3COc3ccccc32)CC1 [Series 7a] | 55.1 nM | 7.3 min | 5 to 6 h | 16.9 min | 29.5 min | 56.9 %/hr | 130 min | – | – | –
4 | Cl.O=C(O)CCN1CCC(=C(c2ccccc2)c2ccccc2)CC1 [Series 11a] | – | 11.2 min | 6 h | 18.7 min | 41.2 min | 67.3 %/hr | 85 min | 308 nM | 119 nM | Rebound Insomnia (Male Wistar rats; 30 mg/kg PO, at CT-18): Minor
5 | CC(C)OC(=O)CCN1CCC(=C(c2ccccc2)c2ccccc2)CC1 [Series 11d, Isopropyl 3-[4-(diphenylmethylidene)piperidin-1-yl]propanoate] | – | 11.0 min | 6 h | 20.1 min | 55.5 min | 58.5 %/hr | 135 min | 378 nM | 147 nM | –
6 | CC(C)COC(=O)CCN1CCC(=C(c2ccccc2)c2ccccc2)CC1 [Series 11e, Isobutyl 3-[4-(diphenylmethylidene)piperidin-1-yl]propanoate] | – | 8.3 min | 6 h | 19.1 min | 49.6 min | 59.6 %/hr | 80 min | 718 nM | 279 nM | –
7 | O=C(CCN1CCC(=C(c2ccccc2)c2ccccc2)CC1)OC1CCCC1.O=C(O)C(=O)O [Series 11f, Cyclopentyl 3-[4-(diphenylmethylidene)piperidin-1-yl]propanoate, oxalic acid salt] | – | – | – | – | – | – | – | 1070 nM | 416 nM | REM sleep inhibition (Male Wistar rats; [2]): did not, however, produce; Rebound Insomnia (Male Wistar rats; [2]): did not, however, produce; time post-treatment for which total sleep time was increased (Male Wistar rats; [3]): 3 h; total sleep time (Male Wistar rats; [3]): significantly increased; cumulative effect on total sleep time (TST) during the initial 5 hours post-treatment, relative to baseline (Male Wistar rats; 30 mg/kg versus Zolpidem 10 mg/kg): induced more TST than Zolpidem; sleep continuity, as assessed by sleep bout length (Male Wistar rats; 10 and 30 mg/kg, intraperitoneal, relative to vehicle control): increased sleep continuity; soporific effects (Male Wistar rats; administered at CT-18, intraperitoneal bolus): robust soporific effects; locomotor activity (Male Wistar rats; intraperitoneal, CT-18): reduction; sleep inducing effects compared to therapeutic doses of Ambien (Zolpidem) (Male Wistar rats; intraperitoneal, CT-18): equal or better; increase of sleep time and sleep continuity (sleep bout lengths): dependence on dose (Male Wistar rats; laboratory rats, 10 and 30 mg/kg): dose-dependent
8 | O=C(CCN1CCC(=C(c2ccccc2)c2ccccc2)CC1)OC1CCOC1 (centres unmarked) [Series 11h] | – | – | – | – | – | – | – | 201 nM | 88.3 nM | difference in binding affinity towards the H1 receptor between the enantiomeric compounds (Histamine, H1): do not result in a substantial difference; difference in binding affinity towards the muscarinic receptors between the enantiomeric compounds (muscarinic receptors): do show a substantial difference
9 | O=C(CCN1CCC(=C(c2ccccc2)c2ccccc2)CC1)OC1CCOCC1 [Series 11i] | – | – | – | – | – | – | – | 200 nM | 87.8 nM | –
10 | Cc1ccc(/C(=C\CN2CCCC2)c2cccc(C(=O)O)n2)cc1 [Series 16a] | 43.9 nM | 5.4 min | 5 h | 11.8 min | 20.7 min | 57.9 %/hr | 180 min | – | – | –
11 | Cl.O=C(O)CCCN1CCC(OC(c2ccccc2)c2ccccc2)CC1 [Series 53a] | 16.1 nM | 4.3 min | 4 h | 9.1 min | 17.4 min | 49.2 %/hr | 30 min | – | – | –
12 | O=C(O)CCCN1CCC(=C2c3ccccc3COc3ccccc32)CC1 [Series 73a] | 42.8 nM | 14.5 min | – | 27.6 min | 47.3 min | 62.2 %/hr | 45 min | – | – | –
13 | CC(C)(CN1CCC(=C2c3ccccc3COc3ccccc32)CC1)C(=O)O [Series 74a] | 109 nM | 9.9 min | 5 to 6 h | 22.3 min | 43.4 min | 64.4 %/hr | 70 to 80 min | – | – | –
14 | CC(C)(CCN1CCC(=C2c3ccccc3COc3ccccc32)CC1)C(=O)O [Series 75a] | 47.9 nM | 6.8 min | 4 h | 13.6 min | 33.9 min | 58.8 %/hr | 70 to 85 min | – | – | Average Bout-Length (Male Wistar rats; 45 mg/kg PO, at CT-18): 10.8 min; Duration (Male Wistar rats; 45 mg/kg PO, at CT-18): 5 h; Maximum Bout Length (Male Wistar rats; 45 mg/kg PO, at CT-18): 19.4 min; NREM Accum. (Male Wistar rats; 45 mg/kg PO, at CT-18): 33.9 min; NREM Peak (Male Wistar rats; 45 mg/kg PO, at CT-18): 58.2 %/hr; Onset (Male Wistar rats; 45 mg/kg PO, at CT-18): 70 to 85 min
15 | CC(C)OC(=O)CN1CCC(=C2c3ccccc3COc3ccccc32)CC1 [dox7d-oxalate] | 198 nM | 12.9 min | 5 h | 25.0 min | 54.1 min | 76.9 %/hr | 85 min | – | – | –
